Results from patent publication US20180318383A1, “PEPTIDE HAVING NEURONAL LOSS PREVENTION AND REGENERATION EFFECTS, AND COMPOSITION CONTAINING SAME” (GEMVAX & KAEL CO., LTD., priority 2015, published 2018).

What was measured:
[1] = test system: AD transgenic mice (3XTg-AD); experiment: Y-maze test; type: in vivo
Method: (§1) To test the efficacy of PEP1 on AD, AD transgenic mice (3XTg-AD) were purchased from Jackson Laboratory. Genetic characteristics of the transgenic mice are as follows: B6; 129-Psen1tm1Mpm Tg(APPSwe, tauP301L)1Lfa/Mmjax. […] One week after mice were confirmed as pregnant, new mice were delivered and weaned for 3 weeks. Two weeks later, mature mice were obtained.
(§2) During the preliminary breeding and the entire period of the experiment, a temperature was maintained at 23±2° C. and a relative humidity was maintained at 60±10%, and then the mice were raised under a 12-hour dark/light cycle. Experimental animals were divided into five groups, and each group included 10 animals. The divided experimental groups are as follows. […]
(§3) The PEP1, physiological saline, donepezil and scramble peptide were subcutaneously injected at each concentration three times a week for two months from the age of 12 months, and then two months after the injection, cognitive/memory behavior tests (passive avoidance test and Y maze test) were performed to examine a degree of improvement in cognitive function and memory function. After the brain was extracted to separate the hippocampus, the amounts of amyloid beta in the hippocampus and the whole brain, and the amounts of an amyloid beta oligomer and NFT generated by tau hyperphosphorylation were determined by western blotting and immunostaining. […]

[2] = test system: GFAP; experiment: GFAP expression in 3XTg-AD mice (western blotting); type: in vivo; settings: hippocampus and whole brain; s.c. three times a week for two months; vs control and Donepezil, same amount
Method: as §1, §2, §3

[3] = test system: NeuN; experiment: NeuN expression in 3XTg-AD mice (western blotting); type: in vivo; settings: hippocampus and whole brain; s.c. three times a week for two months from age 12 months; vs control and Donepezil, same amount
Method: as §1, §2, §3

[4] = test system: NSCs; experiment: Cell migration assay (QCM-24-well kit); type: cell-based, rat; settings: 20 μM Aβ25-35 + PEP1 1, 10, 50 μM
Method: A cell migration assay was carried out using a QCM-24-well cell migration kit. Briefly, 20 μM Aβ25-30 and each concentration of PEP1 (1, 10 or 50 μM) were added to a lower chamber, and 3×10^5 NSCs were cultured in an upper chamber at 37° C. for 24 hours. NSCs migrated toward the membrane, and after staining to observe the number of migrating cells, absorbance was measured at 560 nm.

EARPALLTSRLRFIPK (homo sapiens) [PEP1, hTERT-derived peptide consisting of 16 amino acids, telomerase location [611-626]]
behavioral judgment (Y-maze test) ([1]; 3XTg-AD mice, treated from age 12 months, vs control and Donepezil): excellent behavioral judgment
ability to select a new path (spontaneous alteration (%)), Y-maze test ([1]; severe AD models, 20-month-old or older 3XTg-AD mice, PEP1 1 mg/kg s.c., vs physiological saline): increased
GFAP [2]: reduced
NeuN [3]: increased
migration ability of NSCs [4]: effectively restored migration
